From PubChem BioAssay (NCI)
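Protocol summary: plate cells (96-well), add compound at 5 concentrations, incubate 48 h, interpolate endpoints linearly. GI50 = concentration required for 50% inhibition of growth. TGI: concentration producing complete growth inhibition.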

Tests used:
Assay in all cases: NCI-60 cell line screen, 48 h; in the data active means GI50 below about 0.43 µM; inactive means the rest
OVCAR-4 ovarian = tested on: OVCAR-4 ovarian
SF-268 CNS = tested on: SF-268 CNS
HOP-92 NSCLC = tested on: HOP-92 NSCLC
DU-145 prostate = tested on: DU-145 prostate
T-47D breast = tested on: T-47D breast
SK-OV-3 ovarian = tested on: SK-OV-3 ovarian
UACC-257 melanoma = tested on: UACC-257 melanoma
MOLT-4 leukemia = tested on: MOLT-4 leukemia
HS 578T breast = tested on: HS 578T breast
CCRF-CEM leukemia = tested on: CCRF-CEM leukemia
M14 melanoma = tested on: M14 melanoma
U251 CNS = tested on: U251 CNS
RXF 393 renal = tested on: RXF 393 renal
ACHN renal = tested on: ACHN renal
OVCAR-3 ovarian = tested on: OVCAR-3 ovarian
NCI-H522 lung = tested on: NCI-H522 lung
OVCAR-5 ovarian = tested on: OVCAR-5 ovarian
NCI-H460 lung = tested on: NCI-H460 lung
CAKI-1 renal = tested on: CAKI-1 renal
SF-539 CNS = tested on: SF-539 CNS
NCI-H226 lung = tested on: NCI-H226 lung
KM12 colon = tested on: KM12 colon
SK-MEL-5 melanoma = tested on: SK-MEL-5 melanoma
SK-MEL-2 melanoma = tested on: SK-MEL-2 melanoma
SR leukemia = tested on: SR leukemia
HCT-15 colon = tested on: HCT-15 colon
LOX IMVI melanoma = tested on: LOX IMVI melanoma
RPMI-8226 leukemia = tested on: RPMI-8226 leukemia
SN12C renal = tested on: SN12C renal
EKVX NSCLC = tested on: EKVX NSCLC
UACC-62 melanoma = tested on: UACC-62 melanoma
HCC-2998 colon = tested on: HCC-2998 colon
SF-295 CNS = tested on: SF-295 CNS
HCT-116 colon = tested on: HCT-116 colon
SNB-75 CNS = tested on: SNB-75 CNS
MALME-3M melanoma = tested on: MALME-3M melanoma
A549 NSCLC = tested on: A549 NSCLC
HOP-62 NSCLC = tested on: HOP-62 NSCLC
HL-60(TB) leukemia = tested on: HL-60(TB) leukemia
OVCAR-8 ovarian = tested on: OVCAR-8 ovarian
K-562 leukemia = tested on: K-562 leukemia
NCI-H23 lung = tested on: NCI-H23 lung
UO-31 renal = tested on: UO-31 renal
IGROV1 ovarian = tested on: IGROV1 ovarian
HT29 colon = tested on: HT29 colon
MDA-MB-435 = tested on: MDA-MB-435
TK-10 renal = tested on: TK-10 renal
MCF7 breast = tested on: MCF7 breast
BT-549 breast = tested on: BT-549 breast
SK-MEL-28 melanoma = tested on: SK-MEL-28 melanoma
COLO 205 colon = tested on: COLO 205 colon
A498 renal = tested on: A498 renal
MDA-MB-231 breast = tested on: MDA-MB-231 breast
SNB-19 CNS = tested on: SNB-19 CNS
PC-3 prostate = tested on: PC-3 prostate
786-0 renal = tested on: 786-0 renal
NCI/ADR-RES ovarian = tested on: NCI/ADR-RES ovarian
SW-620 colon = tested on: SW-620 colon

COc1cc(/C=N/Nc2ncnc3c2cnn3Cc2ccccc2)ccc1O
11.4 µM: TGI (SNB-75 CNS)
14.3 µM: TGI (SF-268 CNS)
11.8 µM: TGI (HOP-62 NSCLC)
> 23.9 µM: TGI (A549 NSCLC)
inactive: GI50 (OVCAR-4 ovarian) 5.05 µM | GI50 (SF-268 CNS) 5.34 µM | GI50 (HOP-92 NSCLC) 0.83 µM | GI50 (DU-145 prostate) 12.2 µM | GI50 (T-47D breast) 9.57 µM | GI50 (SK-OV-3 ovarian) 5.99 µM | GI50 (UACC-257 melanoma) > 16.7 µM | GI50 (MOLT-4 leukemia) > 25 µM | GI50 (HS 578T breast) 4.16 µM | GI50 (CCRF-CEM leukemia) > 6.7 µM | GI50 (M14 melanoma) > 25 µM | GI50 (U251 CNS) 6.51 µM | GI50 (RXF 393 renal) 4.7 µM | GI50 (ACHN renal) 4.13 µM | GI50 (OVCAR-3 ovarian) 6.8 µM | GI50 (NCI-H522 lung) 5.37 µM | GI50 (OVCAR-5 ovarian) > 25 µM | GI50 (NCI-H460 lung) 8.98 µM | GI50 (CAKI-1 renal) > 19.9 µM | GI50 (SF-539 CNS) 8.12 µM | GI50 (NCI-H226 lung) 10.3 µM | GI50 (KM12 colon) 7.68 µM | GI50 (SK-MEL-5 melanoma) 12.2 µM | GI50 (SK-MEL-2 melanoma) 16.7 µM | GI50 (SR leukemia) > 25 µM | GI50 (HCT-15 colon) > 25 µM | GI50 (LOX IMVI melanoma) > 17.7 µM | GI50 (RPMI-8226 leukemia) > 18.5 µM | GI50 (SN12C renal) > 15.8 µM | GI50 (EKVX NSCLC) > 25 µM | GI50 (UACC-62 melanoma) 10.4 µM | GI50 (HCC-2998 colon) 15.2 µM | GI50 (SF-295 CNS) > 25 µM | GI50 (HCT-116 colon) 14 µM | GI50 (SNB-75 CNS) 3.29 µM | GI50 (MALME-3M melanoma) 7.14 µM | GI50 (A549 NSCLC) 8.69 µM | GI50 (HOP-62 NSCLC) 5.24 µM | GI50 (HL-60(TB) leukemia) > 18.5 µM | GI50 (OVCAR-8 ovarian) 5.85 µM | GI50 (K-562 leukemia) > 6.57 µM | GI50 (NCI-H23 lung) 11.9 µM | GI50 (UO-31 renal) 1.93 µM | GI50 (IGROV1 ovarian) 14.8 µM | GI50 (HT29 colon) 14.9 µM | GI50 (MDA-MB-435) > 23.1 µM | GI50 (TK-10 renal) 6.39 µM | GI50 (MCF7 breast) > 18 µM | GI50 (BT-549 breast) 12.2 µM | GI50 (SK-MEL-28 melanoma) > 19.6 µM | GI50 (COLO 205 colon) 10.6 µM | GI50 (A498 renal) > 18.3 µM | GI50 (MDA-MB-231 breast) 3.43 µM | GI50 (SNB-19 CNS) 9.22 µM | GI50 (PC-3 prostate) 11.7 µM | GI50 (786-0 renal) 6.92 µM | GI50 (NCI/ADR-RES ovarian) 7.35 µM | GI50 (SW-620 colon) > 25 µM
15.3 µM: TGI (OVCAR-4 ovarian)
11.9 µM: TGI (UO-31 renal)
19.2 µM: TGI (RXF 393 renal)
> 21.2 µM: TGI (HS 578T breast)
8.86 µM: TGI (HOP-92 NSCLC)
> 19.8 µM: TGI (OVCAR-8 ovarian)
> 22.8 µM: TGI (NCI-H522 lung)
> 19.7 µM: TGI (OVCAR-3 ovarian)
18.8 µM: TGI (786-0 renal)
> 25 µM: TGI (DU-145 prostate) | TGI (T-47D breast) | TGI (UACC-257 melanoma) | TGI (MOLT-4 leukemia) | TGI (CCRF-CEM leukemia) | TGI (M14 melanoma) | TGI (U251 CNS) | TGI (ACHN renal) | TGI (OVCAR-5 ovarian) | TGI (NCI-H460 lung) | TGI (CAKI-1 renal) | TGI (NCI-H226 lung) | TGI (KM12 colon) | TGI (SK-MEL-5 melanoma) | TGI (SK-MEL-2 melanoma) | TGI (SR leukemia) | TGI (HCT-15 colon) | TGI (LOX IMVI melanoma) | TGI (RPMI-8226 leukemia) | TGI (SN12C renal) | TGI (EKVX NSCLC) | TGI (UACC-62 melanoma) | TGI (HCC-2998 colon) | TGI (SF-295 CNS) | TGI (HCT-116 colon) | TGI (MALME-3M melanoma) | TGI (HL-60(TB) leukemia) | TGI (K-562 leukemia) | TGI (NCI-H23 lung) | TGI (IGROV1 ovarian) | TGI (HT29 colon) | TGI (MDA-MB-435) | TGI (MCF7 breast) | TGI (BT-549 breast) | TGI (SK-MEL-28 melanoma) | TGI (COLO 205 colon) | TGI (A498 renal) | TGI (MDA-MB-231 breast) | TGI (SNB-19 CNS) | TGI (PC-3 prostate) | TGI (NCI/ADR-RES ovarian) | TGI (SW-620 colon)
24.4 µM: TGI (SF-539 CNS)
16.8 µM: TGI (SK-OV-3 ovarian)
19.1 µM: TGI (TK-10 renal)
